Experimental data as given in patent US10208089B2, “Modulation of complement activity” (priority 2014, dated 2019).
Starred links: 1 amine or outer side, 2 acyl side, 3 side chain; linkers in the order of their positions; H or OH if unused. Positions of bridges follow the written chain, without caps; N, C: chain ends. Non-standard residues stand in square brackets, D forms with d. Residues, ends and D or L forms follow the SMILES beside them. Trp(7-aza) = N[C@@H](Cc1c[nH]c2ncccc12)C(=O)O; mXylylene = c1cc(C[*:1])cc(C[*:2])c1; dPhg = N[C@@H](C(=O)O)c1ccccc1; Phg = N[C@H](C(=O)O)c1ccccc1; Tle = CC(C)(C)[C@H](N)C(=O)O; Pra = C#CC[C@H](N)C(=O)O; Nva = CCC[C@H](N)C(=O)O

The compounds below were run against C5 (Homo sapiens, UniProt P01031) (assay: Human hemolysis assay (RBC lysis assay using complete human sera)). Conditions: inhibition of lysis of antibody-sensitized sheep erythrocytes, complete human sera.
C5, sequence (P01031 19-1676): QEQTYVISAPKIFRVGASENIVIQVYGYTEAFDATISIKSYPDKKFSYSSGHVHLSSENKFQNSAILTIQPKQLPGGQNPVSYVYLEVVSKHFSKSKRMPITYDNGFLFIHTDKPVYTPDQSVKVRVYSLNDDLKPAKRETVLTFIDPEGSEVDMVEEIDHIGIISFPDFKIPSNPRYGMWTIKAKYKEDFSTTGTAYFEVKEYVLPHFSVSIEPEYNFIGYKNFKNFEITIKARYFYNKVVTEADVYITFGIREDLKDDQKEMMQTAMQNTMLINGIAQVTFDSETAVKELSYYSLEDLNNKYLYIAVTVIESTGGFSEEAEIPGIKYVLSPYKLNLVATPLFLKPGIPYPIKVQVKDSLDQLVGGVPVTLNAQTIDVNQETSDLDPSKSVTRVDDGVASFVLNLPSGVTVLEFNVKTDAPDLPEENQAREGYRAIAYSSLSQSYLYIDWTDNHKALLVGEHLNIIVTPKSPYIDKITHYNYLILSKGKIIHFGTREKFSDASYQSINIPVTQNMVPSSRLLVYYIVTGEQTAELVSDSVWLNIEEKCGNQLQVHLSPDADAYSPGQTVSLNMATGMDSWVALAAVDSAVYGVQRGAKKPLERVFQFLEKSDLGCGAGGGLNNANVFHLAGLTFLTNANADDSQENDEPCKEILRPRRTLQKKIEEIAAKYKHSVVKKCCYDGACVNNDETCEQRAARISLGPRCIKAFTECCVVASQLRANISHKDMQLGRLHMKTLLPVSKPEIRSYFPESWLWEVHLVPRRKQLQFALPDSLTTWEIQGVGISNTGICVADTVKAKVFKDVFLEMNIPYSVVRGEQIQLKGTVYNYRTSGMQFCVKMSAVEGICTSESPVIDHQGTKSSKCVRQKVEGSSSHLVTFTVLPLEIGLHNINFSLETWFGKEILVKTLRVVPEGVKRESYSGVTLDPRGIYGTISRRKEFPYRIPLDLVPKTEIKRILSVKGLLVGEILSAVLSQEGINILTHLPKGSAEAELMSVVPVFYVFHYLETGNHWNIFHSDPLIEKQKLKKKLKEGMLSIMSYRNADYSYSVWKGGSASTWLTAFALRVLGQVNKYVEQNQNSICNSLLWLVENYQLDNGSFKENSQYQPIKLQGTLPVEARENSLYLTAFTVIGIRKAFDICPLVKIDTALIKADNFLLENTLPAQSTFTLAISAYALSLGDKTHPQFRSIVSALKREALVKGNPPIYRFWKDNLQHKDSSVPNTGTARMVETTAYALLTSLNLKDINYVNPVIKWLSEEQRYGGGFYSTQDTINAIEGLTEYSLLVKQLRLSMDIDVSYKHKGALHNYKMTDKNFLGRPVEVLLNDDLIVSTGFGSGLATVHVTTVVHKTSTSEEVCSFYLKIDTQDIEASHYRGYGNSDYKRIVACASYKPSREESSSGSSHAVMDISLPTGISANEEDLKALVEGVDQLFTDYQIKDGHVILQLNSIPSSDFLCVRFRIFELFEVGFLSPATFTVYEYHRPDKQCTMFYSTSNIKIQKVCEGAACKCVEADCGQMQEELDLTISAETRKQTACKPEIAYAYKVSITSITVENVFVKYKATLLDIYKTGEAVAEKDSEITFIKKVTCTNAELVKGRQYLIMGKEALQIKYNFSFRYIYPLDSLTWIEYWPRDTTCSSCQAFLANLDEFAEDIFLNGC
Format: cell-based
Parameters: with complete human sera (Complement Technology, Tyler Tex.) and polypeptides; tissue Complement Technology, Tyler Tex; host or cells: complete human serum
CC(=O)N[C@H]1CSCc2cccc(c2)CSC[C@@H](C(=O)N[C@@H](CC(=O)O)C(=O)N[C@H](C(=O)N[C@@H](Cc2ccc(O)cc2)C(=O)N[C@@H](Cc2c[nH]c3ccccc23)C(=O)N[C@@H](CCC(=O)O)C(=O)N[C@@H](Cc2ccccc2)C(N)=O)C(C)(C)C)NC(=O)[C@H](Cc2ccccc2)NC(=O)[C@H](CCCNC(=N)N)NC(=O)[C@H](CCC(=O)O)NC(=O)[C@H](C(C)(C)C)NC1=O [Compound R3139, [mXylyl(1,6)]Ac-C-Tbg-E-R-F-C-D-Tbg-Y-W-E-F-NH2] (Ac-C[Tle]ERFCD[Tle]YWEF-NH2; linker 1-6 via mXylylene) showed an IC50 of 97.2 nM.
Compound CC(=O)N[C@H]1CSCc2cccc(c2)CSC[C@@H](C(=O)N[C@@H](CC(=O)O)C(=O)N[C@H](C(=O)N[C@@H](Cc2ccc(O)cc2)C(=O)N[C@@H](Cc2c[nH]c3ccccc23)C(=O)N[C@@H](CCC(=O)O)C(=O)N[C@@H](Cc2ccc(O)cc2)C(=O)N2CCC[C@H]2C(N)=O)C(C)C)NC(=O)[C@H](Cc2ccccc2)NC(=O)[C@H](CCCNC(=N)N)NC(=O)[C@H](CCC(=O)O)NC(=O)[C@H](C(C)C)NC1=O [Compound R3140, [mXv1v1(1,6)]Ac-C-V-E-R-F-C-D-V-Y-W-E-Y-P-NH2] has an IC50 of 17.9 nM.
For CC(=O)N[C@H]1CSCc2cccc(c2)CSC[C@@H](C(=O)N[C@@H](CC(=O)O)C(=O)N[C@H](C(=O)N[C@@H](Cc2ccc(O)cc2)C(=O)N[C@@H](Cc2c[nH]c3ccccc23)C(=O)N[C@@H](CCC(=O)O)C(=O)N[C@@H](Cc2ccccc2)C(=O)N2CCC[C@H]2C(N)=O)C(C)C)NC(=O)[C@H](Cc2ccccc2)NC(=O)[C@H](CCCNC(=N)N)NC(=O)[C@H](CCC(=O)O)NC(=O)[C@H](C(C)C)NC1=O [Compound R3141, [mXylyl(1,6)]Ac-C-V-E-R-F-C-D-V-Y-W-E-F-P-NH2] (Ac-CVERFCDVYWEFP-NH2; linker 1-6 via mXylylene), the IC50 was 24.5 nM.
CC(=O)N[C@H]1CSCc2cccc(c2)CSC[C@@H](C(=O)N[C@@H](CC(=O)O)C(=O)N[C@H](C(=O)N[C@@H](Cc2ccc(O)cc2)C(=O)N[C@@H](Cc2c[nH]c3ccccc23)C(=O)N[C@@H](CCC(=O)O)C(=O)N[C@@H](Cc2ccc(O)cc2)C(=O)N2CCC[C@H]2C(N)=O)C(C)(C)C)NC(=O)[C@H](Cc2ccccc2)NC(=O)[C@H](CCCNC(=N)N)NC(=O)[C@H](CCC(=O)O)NC(=O)[C@H](C(C)C)NC1=O [Compound R3143, [mXyly1(1,6)]Ac-C-V-E-R-F-C-D-Tbg-Y-W-E-Y-P-NH2] (Ac-CVERFCD[Tle]YWEYP-NH2; linker 1-6 via mXylylene) was tested, and the IC50 was 18.6 nM.
For CC(=O)N[C@H]1CSCc2cccc(c2)CSC[C@@H](C(=O)N[C@@H](CC(=O)O)C(=O)N[C@H](C(=O)N[C@@H](Cc2ccc(O)cc2)C(=O)N[C@@H](Cc2c[nH]c3ccccc23)C(=O)N[C@@H](CCC(=O)O)C(=O)N[C@@H](Cc2ccccc2)C(N)=O)C(C)C)NC(=O)[C@H](Cc2ccccc2)NC(=O)[C@H](CCCNC(=N)N)NC(=O)[C@H](CCC(=O)O)NC(=O)[C@H](C(C)(C)C)NC1=O [Compound R3146, [mXylyl(1,6)]Ac-C-Tbg-E-R-F-C-D-V-Y-W-E-F-NH2] (Ac-C[Tle]ERFCDVYWEF-NH2; linker 1-6 via mXylylene), the IC50 was 107 nM.
In the case of C#CC[C@H](NC(=O)[C@H](Cc1ccccc1)NC(=O)[C@H](CCC(=O)O)NC(=O)[C@H](Cc1c[nH]c2ccccc12)NC(=O)[C@H](Cc1ccc(O)cc1)NC(=O)[C@@H](NC(=O)[C@H](CC(=O)O)NC(=O)[C@@H]1CSCc2cccc(c2)CSC[C@H](NC(C)=O)C(=O)N[C@@H](C(C)C)C(=O)N[C@@H](CCC(=O)O)C(=O)N[C@@H](CCCNC(=N)N)C(=O)N[C@@H](Cc2ccccc2)C(=O)N1)C(C)C)C(N)=O [Compound R3147, [mXylyl(1,6)]Ac-C-V-E-R-F-C-D-V-Y-W-E-F-Propargyl-Gly-NH2] (Ac-CVERFCDVYWEF[Pra]-NH2; linker 1-6 via mXylylene), the IC50 is reported as 138 nM.
Compound CCC[C@H](NC(=O)[C@@H](NC(=O)[C@@H]1CCCN1C(=O)[C@H](Cc1ccc(O)cc1)NC(=O)[C@H](CCC(=O)O)NC(=O)[C@H](Cc1c[nH]c2ccccc12)NC(=O)[C@H](Cc1ccc(O)cc1)NC(=O)[C@@H](NC(=O)[C@H](CC(=O)O)NC(=O)[C@@H]1CSCc2cccc(c2)CSC[C@H](NC(C)=O)C(=O)N[C@@H](C)C(=O)N[C@@H](CCC(=O)O)C(=O)N[C@@H](CCCNC(=N)N)C(=O)N[C@@H](Cc2ccccc2)C(=O)N1)C(C)(C)C)c1ccccc1)C(N)=O [Compound R3148, [mXylyl(1,6)]Ac-C-A-E-R-F-C-D-Tbg-Y-W-E-Y-P-Phg-Nvl-NH2] (Ac-CAERFCD[Tle]YWEYP[Phg][Nva]-NH2; linker 1-6 via mXylylene) has an IC50 of 8.5 nM.
Compound CCC[C@H](NC(=O)[C@H](NC(=O)[C@@H]1CCCN1C(=O)[C@H](Cc1ccc(O)cc1)NC(=O)[C@H](CCC(=O)O)NC(=O)[C@H](Cc1c[nH]c2ccccc12)NC(=O)[C@H](Cc1ccc(O)cc1)NC(=O)[C@@H](NC(=O)[C@H](CC(=O)O)NC(=O)[C@@H]1CSCc2cccc(c2)CSC[C@H](NC(C)=O)C(=O)N[C@@H](C)C(=O)N[C@@H](CCC(=O)O)C(=O)N[C@@H](CCCNC(=N)N)C(=O)N[C@@H](Cc2ccccc2)C(=O)N1)C(C)(C)C)c1ccccc1)C(N)=O [Compound R3149, [mXylyl(1,6)]Ac-C-A-E-R-F-C-D-Tbg-Y-W-E-Y-P-(D-Phg)-Nvl-NH2] (Ac-CAERFCD[Tle]YWEYP[dPhg][Nva]-NH2; linker 1-6 via mXylylene) has an IC50 of 13.6 nM.
CCC[C@H](NC(=O)[C@@H](NC(=O)[C@@H]1CCCN1C(=O)[C@H](Cc1ccc(O)cc1)NC(=O)[C@H](CCC(=O)O)NC(=O)[C@H](Cc1c[nH]c2ncccc12)NC(=O)[C@H](Cc1ccc(O)cc1)NC(=O)[C@@H](NC(=O)[C@H](CC(=O)O)NC(=O)[C@@H]1CSCc2cccc(c2)CSC[C@H](NC(C)=O)C(=O)N[C@@H](C(C)C)C(=O)N[C@@H](C)C(=O)N[C@@H](CCCNC(=N)N)C(=O)N[C@@H](Cc2ccccc2)C(=O)N1)C(C)(C)C)c1ccccc1)C(N)=O [Compound R3150, [mXylyl(1,6)]Ac-C-V-A-R-F-C-D-Tbg-Y-azaTrp-E-Y-P-Phg-Nvl-NH2] (Ac-CVARFCD[Tle]Y[Trp(7-aza)]EYP[Phg][Nva]-NH2; linker 1-6 via mXylylene) showed an IC50 of 37 nM.
CCC[C@H](NC(=O)[C@H](NC(=O)[C@@H]1CCCN1C(=O)[C@H](Cc1ccc(O)cc1)NC(=O)[C@H](CCC(=O)O)NC(=O)[C@H](Cc1c[nH]c2ncccc12)NC(=O)[C@H](Cc1ccc(O)cc1)NC(=O)[C@@H](NC(=O)[C@H](CC(=O)O)NC(=O)[C@@H]1CSCc2cccc(c2)CSC[C@H](NC(C)=O)C(=O)N[C@@H](C(C)C)C(=O)N[C@@H](C)C(=O)N[C@@H](CCCNC(=N)N)C(=O)N[C@@H](Cc2ccccc2)C(=O)N1)C(C)(C)C)c1ccccc1)C(N)=O [Compound R3151, [mXylyl(1,6)]Ac-C-V-A-R-F-C-D-Tbg-Y-azaTrp-E-Y-P-(D-Phg)-Nvl-NH2] (Ac-CVARFCD[Tle]Y[Trp(7-aza)]EYP[dPhg][Nva]-NH2; linker 1-6 via mXylylene) gave an IC50 of 165 nM.
In the case of CCC[C@H](NC(=O)[C@@H](NC(=O)[C@@H]1CCCN1C(=O)[C@H](Cc1ccc(O)cc1)NC(=O)[C@H](CCC(=O)O)NC(=O)[C@H](Cc1c[nH]c2ncccc12)NC(=O)[C@H](Cc1ccc(O)cc1)NC(=O)[C@@H](NC(=O)[C@H](CC(=O)O)NC(=O)[C@@H]1CSCc2cccc(c2)CSC[C@H](NC(C)=O)C(=O)N[C@@H](C(C)C)C(=O)N[C@@H](CCC(=O)O)C(=O)N[C@@H](C)C(=O)N[C@@H](Cc2ccccc2)C(=O)N1)C(C)(C)C)c1ccccc1)C(N)=O [Compound R3153, [mXylyl(1,6)]Ac-C-V-E-A-F-C-D-Tba-Y-azaTrp-E-Y-P-Phg-Nvl-NH2] (Ac-CVEAFCD[Tle]Y[Trp(7-aza)]EYP[Phg][Nva]-NH2; linker 1-6 via mXylylene), the IC50 is reported as 175 nM.
CCC[C@H](NC(=O)[C@H](NC(=O)[C@@H]1CCCN1C(=O)[C@H](Cc1ccc(O)cc1)NC(=O)[C@H](CCC(=O)O)NC(=O)[C@H](Cc1c[nH]c2ncccc12)NC(=O)[C@H](Cc1ccc(O)cc1)NC(=O)[C@@H](NC(=O)[C@H](CC(=O)O)NC(=O)[C@@H]1CSCc2cccc(c2)CSC[C@H](NC(C)=O)C(=O)N[C@@H](C(C)C)C(=O)N[C@@H](CCC(=O)O)C(=O)N[C@@H](C)C(=O)N[C@@H](Cc2ccccc2)C(=O)N1)C(C)(C)C)c1ccccc1)C(N)=O [Compound R3154, [mXylyl(1,6)]Ac-C-V-E-A-F-C-D-Tbg-Y-azaTrp-E-Y-P-(D-Phg)-Nvl-NH2] (Ac-CVEAFCD[Tle]Y[Trp(7-aza)]EYP[dPhg][Nva]-NH2; linker 1-6 via mXylylene) gave an IC50 of 592 nM.
CCC[C@H](NC(=O)[C@@H](NC(=O)[C@@H]1CCCN1C(=O)[C@H](Cc1ccc(O)cc1)NC(=O)[C@H](CCC(=O)O)NC(=O)[C@H](Cc1c[nH]c2ncccc12)NC(=O)[C@H](Cc1ccc(O)cc1)NC(=O)[C@@H](NC(=O)[C@H](CC(=O)O)NC(=O)[C@@H]1CSCc2cccc(c2)CSC[C@H](NC(C)=O)C(=O)N[C@@H](C(C)C)C(=O)N[C@@H](CCC(=O)O)C(=O)N[C@@H](CCCNC(=N)N)C(=O)N[C@@H](C)C(=O)N1)C(C)(C)C)c1ccccc1)C(N)=O [Compound R3155, [mXylyl(1,6)]Ac-C-V-E-R-A-C-D-Tbg-Y-azaTrp-E-Y-P-Phg-Nvl-NH2] (Ac-CVERACD[Tle]Y[Trp(7-aza)]EYP[Phg][Nva]-NH2; linker 1-6 via mXylylene) showed an IC50 of 1530 nM.
For CCC[C@H](NC(=O)[C@H](NC(=O)[C@@H]1CCCN1C(=O)[C@H](Cc1ccc(O)cc1)NC(=O)[C@H](CCC(=O)O)NC(=O)[C@H](Cc1c[nH]c2ncccc12)NC(=O)[C@H](Cc1ccc(O)cc1)NC(=O)[C@@H](NC(=O)[C@H](CC(=O)O)NC(=O)[C@@H]1CSCc2cccc(c2)CSC[C@H](NC(C)=O)C(=O)N[C@@H](C(C)C)C(=O)N[C@@H](CCC(=O)O)C(=O)N[C@@H](CCCNC(=N)N)C(=O)N[C@@H](C)C(=O)N1)C(C)(C)C)c1ccccc1)C(N)=O [Compound R3156, [mXylyl(1,6)]Ac-C-V-E-R-A-C-D-Tbg-Y-azaTrp-E-Y-P-(D-Phg)-Nvl-NH2] (Ac-CVERACD[Tle]Y[Trp(7-aza)]EYP[dPhg][Nva]-NH2; linker 1-6 via mXylylene), the IC50 was over 10000 nM.
